In paper PMC5684319, “Copper (II) binding of NAD(P)H- flavin oxidoreductase (NfoR) enhances its Cr (VI)-reducing ability” (Scientific Reports, 2017):

Biological target: T1, NfoR (NAD(P)H-flavin oxidoreductase) (Staphylococcus aureus, UniProt Q2FVA4)
T1 construct: gene SAOUHSC_02829; N-terminal 6xHis tag, pET-28a (pEnfoR), E. coli Rosetta (DE3), HisTrap; dimer by homology model only; residues named: His100, His128, Cys163, Met165
T1 sequence (Q2FVA4 1-223): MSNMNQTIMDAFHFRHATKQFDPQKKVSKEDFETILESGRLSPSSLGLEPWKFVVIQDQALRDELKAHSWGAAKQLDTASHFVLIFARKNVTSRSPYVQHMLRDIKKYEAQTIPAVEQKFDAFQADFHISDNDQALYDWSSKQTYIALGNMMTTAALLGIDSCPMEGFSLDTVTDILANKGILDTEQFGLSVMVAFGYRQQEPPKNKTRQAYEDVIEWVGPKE
Assay: HPLC of flavin released by heating the purified protein
Format: binding
Conditions: FMN co-purified with the protein; non-covalent; occupancy, not an affinity

## Cc1cc2nc3c(=O)[nH]c(=O)nc-3n(C[C@H](O)[C@H](O)[C@H](O)COP(=O)(O)O)c2cc1C [FMN]
  percent of FMN/isolated NfoR: 79.98%
